Source: paper PMC10816272, “Comparative Structure-Based Virtual Screening Utilizing Optimized AlphaFold Model Identifies Selective HDAC11 Inhibitor” (International Journal of Molecular Sciences, 2024)

Biological target: T1, HDAC11 (Homo sapiens, UniProt Q96DB2)
T1 construct: full-length human
T1 sequence (Q96DB2 1-347): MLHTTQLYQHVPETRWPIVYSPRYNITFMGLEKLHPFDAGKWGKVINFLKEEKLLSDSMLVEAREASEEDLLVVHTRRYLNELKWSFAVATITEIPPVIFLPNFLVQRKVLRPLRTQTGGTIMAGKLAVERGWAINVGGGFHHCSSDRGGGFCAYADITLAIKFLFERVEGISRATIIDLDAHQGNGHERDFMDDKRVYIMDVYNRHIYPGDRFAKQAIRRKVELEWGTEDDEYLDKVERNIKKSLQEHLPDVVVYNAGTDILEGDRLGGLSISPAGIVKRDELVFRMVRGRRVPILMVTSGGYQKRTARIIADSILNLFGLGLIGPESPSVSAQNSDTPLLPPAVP
Assay: biochemical
Set-up: continuous fluorescence deacylase assay with fatty acid-acylated TNFα-derived peptide substrate
Protocol: In the case of HDAC11, the full-length human was expressed and purified as described in previous work. A fluorescence-based HDAC11 assay was used. The fluorescence measurements were performed using a PerkinElmer Envision 2104 multilabel plate reader (Waltham, MA, USA) at λex = 320 nm and λem = 430 nm. The reaction mixture consisted of HDAC11 and the fatty acid-acylated peptide substrate derived from TNFα in a reaction buffer—comprising 50 mM HEPES, 2 mg/mL BSA, and 70 µM TCEP—at pH 7.4, which was adjusted with NaOH (total volume 40 μL). The reactions were incubated in black 384-well plates for 30 min (scan every 30 s) at room temperature, and the increase in relative fluorescence reflecting the product formation was monitored. Positive (HDAC11, substrate, DMSO, and buffer) and negative controls (substrate, DMSO, and vuffer) were included in every measurement.

IC50: > 20 µM
SMILES: Nc1ccccc1NC(=O)c1ccc(CNC(=O)OCc2cccnc2)cc1 [Entinostat]
